# Experimental data as given in patent US20050084914A1, “Assays with primary cells” (priority 2003, published 2005).
# Assays:
# [1] = tested on: primary human renal proximal tubule epithelial (HRPTE) cells; test: proliferative response of primary HRPTE cells (S-phase index); assay type: cell-based; conditions: HRPTE cells in 96-well microplate wells or on coded carriers; various concentrations
# Description: This example describes how multiplexed analysis using coded carriers may be used to assay the effects of camptothecin on the proliferative response of primary human renal proximal tubule epithelial (HRPTE) cells, in accordance with aspects of the present teachings; see FIG. 6.
# Specifically, HRPTE cells are grown directly in wells of a standard 96-well microplate, to three different cell densities (indicated as the stated number of cells), or on coded carriers that optionally may be placed in wells of the microplate. An “S-phase index” (e.g., the fraction of cells in the S-phase of the cell cycle) is used as a measure of cell proliferation. […] This reduction may be particularly significant in assays on primary cells, because primary cells typically are difficult to obtain and maintain.
# PPARγ = target: T1, PPARγ (Homo sapiens, UniProt P37231); test: PPARγ activity assay based on PEPCK expression in primary pre-adipocytes on coded carriers; conditions: four donor samples (visceral and subcutaneous pre-adipocytes), shared fluid volume, four days
# T1 sequence (P37231 1-505): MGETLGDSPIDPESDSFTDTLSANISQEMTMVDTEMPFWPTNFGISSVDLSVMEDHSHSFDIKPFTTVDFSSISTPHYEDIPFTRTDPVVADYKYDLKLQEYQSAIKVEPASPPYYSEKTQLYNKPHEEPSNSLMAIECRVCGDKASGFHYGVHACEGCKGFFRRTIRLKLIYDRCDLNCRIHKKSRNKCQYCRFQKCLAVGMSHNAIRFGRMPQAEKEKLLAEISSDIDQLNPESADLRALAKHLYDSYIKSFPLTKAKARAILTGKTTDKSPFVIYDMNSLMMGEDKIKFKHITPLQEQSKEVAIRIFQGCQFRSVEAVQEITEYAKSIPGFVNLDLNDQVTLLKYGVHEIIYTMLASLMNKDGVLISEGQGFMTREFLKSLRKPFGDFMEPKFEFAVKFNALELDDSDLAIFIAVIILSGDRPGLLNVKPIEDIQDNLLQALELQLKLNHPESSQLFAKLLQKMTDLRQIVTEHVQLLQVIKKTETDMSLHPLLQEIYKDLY
# Description: This differentiation may be visualized readily and scored by staining lipid droplets that accumulate in the cytoplasm of the adipocytes during and/or after their differentiation. Furthermore, this adipocyte differentiation and/or activation of PPARγ may be followed by measuring the expression levels (RNA and/or protein) of PPARγ target genes (direct or indirect targets), such as PEPCK (phosphoenolpyruvate carboxykinsae) and/or FABP4 (fatty acid binding protein 4), among others.
# Staining was via indirect immunofluorescence. Cells were counterstained with a nuclear dye (Hoechst) for data normalization, here and in other assays. […] Each sample of primary cells corresponds to pre-adipocytes isolated from visceral tissue (samples starting with the letter “V”) or isolated from subcutaneous tissue (samples starting with the letters “SC”) and were supplied by Cambrex. […] Each sample was connected to a distinct class of coded carriers (having a distinct code) to permit identification of the sample after combining the different classes of carrier and samples in a shared volume. […] Lipid accumulation and PEPCK expression were then measured with the samples still disposed in the same microplate wells. […]
# HRPTE cells = test: cytotoxicity response of HRPTE cells (death index, live/dead assay); assay type: cell-based, human; conditions: HRPTE cells in 96-well microplate wells or on coded carriers; various concentrations
# Description: This example describes how multiplexed analysis using coded carriers may be used to study the cytotoxicity response of HRPTE cells to staurosporine, in accordance with aspects of the present teachings; see FIG. 7.
# Specifically, HRPTE cells are grown directly attached to wells of a standard 96-well microplate, or on coded carriers that optionally may be placed in wells of the microplate. A “death index” (e.g., the fraction of observed cells that are dead) may be used as a measure of cytotoxicity. The death index may be computed using any suitable mechanism, such as a fluorescence-based “live/dead assay.” In an exemplary version of the assay, live cells are labeled green using a membrane-permeant calcein AM, which is cleaved by esterases in live cells to yield cytoplasmic green fluorescence, and dead cells are labeled red using a membrane-impermeant ethidium homodimer-1, which passes through the compromised membranes of dead cells to label nucleic acids with red fluorescence. […] This reduction may be particularly significant in assays on primary cells, because primary cells typically are difficult to obtain and maintain.
smiles,measurement,setting,value
CC[C@@]1(O)C(=O)OCc2c1cc1n(c2=O)Cc2cc3ccccc3nc2-1 [camptothecin],S-phase index as a measure of cell proliferation,[1],S-phase index generally decreases with increasing camptothecin concentration
"COc1ccc2c(c1)c(CC(=O)O)c(C)n2C(=O)c1ccc(Cl)cc1 [Indomethacin, indomethacin]",induction of PEPCK expression as a measure of PPARγ activity,PPARγ,relatively strong induction
CN[C@@H]1C[C@H]2O[C@@](C)([C@@H]1OC)n1c3ccccc3c3c4c(c5c6ccccc6n2c5c31)C(=O)NC4 [staurosporine],death index (fraction of dead cells),HRPTE cells,generally increases with increasing staurosporine concentration
